{"source": "patent US20220378761A1", "about": "“PAPD5 Inhibition As A Treatment For Dyskeratosis Congenita, Aplastic Anemia And Myelodysplastic Syndrome Caused By Reduced Telomerase RNA Levels” (The Regents of The University of Colorado, A Body Corporate, priority 2019, published 2022)", "key": {"TERC": {"system": "TERC", "test": "TERC quantification by qRT-PCR in DKC1_A353V hESCs", "format": "cell-based, Homo sapiens", "conditions": "for TERC levels: DKC1_A353V hESCs", "description": "(§1) Treatment of DKC1_A353V hESCs with RG7834 caused a >15-fold reduction in the 3′-end oligoadenylation of TERC, indicating efficient PAPD5 inhibition in these cells (FIG. 2A).\n(§2) RNA extraction and Quantitative real-time PCR: Total RNA was isolated using Trizol (Invitrogen) in accordance with the manufacturer's instructions followed by Turbo DNA-free DNase (Invitrogen) treatment. RNA was converted into cDNA using Superscript III First Strand synthesis kit (Invitrogen) following manufacturer's instructions. Real-time PCR was performed using Evagreen master mix (Lambda Biotech, St. Louis, Mo.) on a StepOne Plus instrument DNase treatment (Thermo Fisher Scientific). For TERC analysis, Brilliant II 1-step qRT-PCR master mix (Agilent, Santa Clara, Calif.) was used following manufacturer's instructions. Reactions were performed in triplicates with 100 ng of RNA per reaction and used gene-specific (for/rev) primers were as follows: […]"}, "PAPD5": {"target": "T1, PAPD5 (Homo sapiens, UniProt Q8NDF8)", "T1 construct": "endogenous in cells; host or cells: DKC1_A353V mutant hESCs (H1; WA01), made by CRISPR/Cas9 editing", "T1 sequence (Q8NDF8 whole entry)": "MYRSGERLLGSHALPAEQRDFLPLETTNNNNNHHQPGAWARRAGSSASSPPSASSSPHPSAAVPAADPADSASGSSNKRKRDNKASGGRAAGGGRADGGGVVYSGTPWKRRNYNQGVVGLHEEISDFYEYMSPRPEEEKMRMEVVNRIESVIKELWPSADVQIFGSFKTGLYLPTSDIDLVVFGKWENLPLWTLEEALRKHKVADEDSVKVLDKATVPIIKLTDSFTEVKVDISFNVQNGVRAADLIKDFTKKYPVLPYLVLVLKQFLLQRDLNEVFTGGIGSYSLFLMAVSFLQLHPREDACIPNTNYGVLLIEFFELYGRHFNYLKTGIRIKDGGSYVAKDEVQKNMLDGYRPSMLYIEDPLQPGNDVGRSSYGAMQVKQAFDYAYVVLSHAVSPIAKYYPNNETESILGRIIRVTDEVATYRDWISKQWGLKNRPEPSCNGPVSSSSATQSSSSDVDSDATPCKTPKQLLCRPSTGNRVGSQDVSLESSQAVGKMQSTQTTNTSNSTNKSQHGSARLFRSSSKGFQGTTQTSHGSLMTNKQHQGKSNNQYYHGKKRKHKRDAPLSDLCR", "test": "3′ end sequencing of TERC (oligoadenylation) in DKC1_A353V hESCs", "format": "cell-based", "experimental": "as §1\n3′ end sequencing of TERC: Briefly, ˜100 ng of DNase-treated, rRNA-depleted, Antarctic phosphatase treated RNA was ligated with 40 pmol of barcoded appendix (2 reactions per sample) using T4 RNA Ligase I and 10 mM ATP. Enzymatic reaction was cleaned up using RNA clean and concentrator kit (Zymo). 4 μl of […] from each reaction (8 μl total RNA) was used for cDNA synthesis using a primer complementary to the appendix. The cDNA product was then used as template for 5′ RACE using TERC-specific barcoded primers and a universal primer. The RACE product was size-selected on a 1% agarose gel and fragments ˜100-300 bp were gel purified and amplified using Illumina sequencing primers. Libraries were multiplexed and sequenced on an Illumina NextSeq sequencer (mid-output setting and 1×150 cycle kit). Sequenced reads were filtered using both the TERC primer and the appendix barcode and reads with 100% sequence identify were used for downstream analysis. TERC reads with […] at the mature end (for e.g., UGCAA, UGCAAA, etc.) were quantified as oligoadenylated for analysis."}, "telomerase": {"system": "telomerase", "test": "Telomerase activity by TRAP in DKC1_A353V hESCs", "format": "cell-based, Homo sapiens", "conditions": "different concentrations", "experimental": "as §1\nDetection of telomerase activity: Telomerase activity was assessed by Telomere Repeat Amplification Protocol (TRAP). Briefly, cells were lysed in NP-40 buffer at 4° C. for 20 min and centrifuged at 13,000 rpm for 10 min. Telomere extension reactions were performed using 2, 0.5, and 0.125 μg of protein and following products were amplified by PCR. Adenosine triphosphate, labeled on the gamma phosphate group with 32P (Perkin-Elmer, USA) was used for labelling of PCR products. TRAP was performed in accordance with the manufacturer's instructions (TRAPeze, Millipore Sigma, Burlington, Mass.). Samples were run in 9% polyacrylamide gel in 0.5× TBE buffer for 3 hr at 250V. Gel was dried at 80° C. for 30 min and exposed to Carestream BioMax MR film (Kodak, Rochester, N.Y.)."}, "TERT": {"system": "TERT", "test": "TERT quantification by qRT-PCR in DKC1_A353V hESCs", "format": "cell-based, Homo sapiens", "conditions": "up to 30 days", "description": "as §1, §2"}, "γH2AX": {"system": "γH2AX", "test": "γH2AX immunoblot (DNA damage signaling) in DKC1_A353V hESCs", "format": "cell-based, Homo sapiens", "conditions": "DKC1_A353V cells, different concentrations vs DMSO", "experimental": "The present inventors investigated if treatment with RG7834 was sufficient to reduce DNA damage signaling arising from eroded telomeres, a hallmark of DC.\nImmunoblots. Extraction of protein was performed using NP-40 buffer (25 mM HEPES-KOH, 150 mM KCl, 1.5 mM MgCl2, 10% glycerol, 0.5% NP40, and 5 mM 2ME [pH 7.5]) supplemented with protease and phosphatase inhibitors for 20 minutes on ice and supernatant was then collected. Protein quantification was analyzed by Bradford Assay. Proteins were then resolved in 12% polyacrylamide gels in 1× Tris/glycine/SDS buffer and following resolution was transferred onto nitrocellulose membrane at 400 milliamps for 1:45 hours in 1× Tris/glycine buffer with 20% methanol. Membranes were blocked in 5% milk in TBS buffer and primary γH2AX and PARN (1:1000, and 1:4000, respectively; Abcam, Cambridge Mass.), DKC1 (1:4000, Bethyl Laboratories), Actin (1:2000, Cell Signaling Technologies, Danvers, Mass.) and GAPDH (1:5000; Cell Signaling Technologies) antibodies incubation was performed overnight at 4° C. in 5% BSA in TBS-buffer supplemented with 1% Tween-20 (TBS-T). Secondary antibodies (Li-COR, Lincoln, Nebr.) incubation was in 1% milk in TBS-T for 1 hour. Image capture and signal analysis was performed using odyssey IR scanner and Image Studio software (Li-COR)."}}}
{"smiles": "COCCCOc1cc2c(cc1OC)-c1cc(=O)c(C(=O)O)cn1[C@H](C(C)C)C2", "note": "[RG7834]", "values": [{"measurement": "TERC levels", "setting": "TERC; 4 days of treatment", "result": "significant increase in TERC levels"}, {"measurement": "TERC levels", "setting": "TERC; continuous treatment up to 30 days, different concentrations", "result": "sustained up to 30 days"}, {"measurement": "TERC levels in the stem cell model of DC", "setting": "TERC; stem cells carrying disease-causing DKC1 mutations", "result": "partially rescued TERC levels"}, {"measurement": "reduction in the 3′-end oligoadenylation of TERC", "setting": "PAPD5", "result": "> 15", "unit": "fold"}, {"measurement": "telomerase activity", "setting": "telomerase", "result": "noticeable rise in telomerase activity"}, {"measurement": "levels of telomerase reverse transcriptase (TERT)", "setting": "TERT", "result": "remained unchanged"}, {"measurement": "γH2AX levels", "setting": "γH2AX", "result": "γH2AX levels were reduced"}]}
